From BindingDB's records for doi:10.1016/s0014-2999(97)01510-0 (Hospital Saint-Antoine, 1998)

Target: T1, 5'-nucleotidase (Rattus norvegicus, UniProt P21588)
T1 sequence (P21588 whole entry): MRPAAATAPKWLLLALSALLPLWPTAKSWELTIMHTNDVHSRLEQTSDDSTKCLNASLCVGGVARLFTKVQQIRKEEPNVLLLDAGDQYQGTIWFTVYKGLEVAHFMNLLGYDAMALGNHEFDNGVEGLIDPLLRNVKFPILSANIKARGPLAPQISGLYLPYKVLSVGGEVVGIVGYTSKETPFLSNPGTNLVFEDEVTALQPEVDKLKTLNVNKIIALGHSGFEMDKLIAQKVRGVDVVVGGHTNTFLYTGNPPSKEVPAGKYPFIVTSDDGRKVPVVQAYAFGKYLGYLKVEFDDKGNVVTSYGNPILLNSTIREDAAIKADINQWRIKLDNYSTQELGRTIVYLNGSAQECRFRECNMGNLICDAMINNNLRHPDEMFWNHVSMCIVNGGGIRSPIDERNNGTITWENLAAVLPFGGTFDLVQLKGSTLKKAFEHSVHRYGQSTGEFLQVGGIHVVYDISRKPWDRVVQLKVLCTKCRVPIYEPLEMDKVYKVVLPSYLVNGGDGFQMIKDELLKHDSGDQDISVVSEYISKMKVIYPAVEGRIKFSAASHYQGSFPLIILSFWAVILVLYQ

How did the Ki turn out when `COc1cccc(OC)c1-c1cc(C(=O)NC2(C(=O)O)C3CC4CC(C3)CC2C4)nn1-c1ccnc2cc(Cl)ccc12` (stereo unspecified) was run?
Its Ki is 124 nM.
